Measurements reported in ChEMBL document CHEMBL1150906, “Cytotoxic and insecticidal constituents of the unripe fruit of Persea americana” (J Nat Prod, 1998).
In brackets after ≈: the same amount, converted by molar mass.

Columns and labels:
[1] = system: A549; test: Cytotoxicity against human A549 cells by MTT assay; format: functional, cell-based
[2] = system: MCF7; test: Cytotoxicity against human MCF7 cells by MTT assay; format: functional, cell-based
[3] = system: HT-29; test: Cytotoxicity against human HT-29 cells by MTT assay; format: functional, cell-based
[4] = system: A498; test: Cytotoxicity against human A498 cells by MTT assay; format: functional, cell-based
[5] = system: PC-3; test: Cytotoxicity against human PC3 cells by MTT assay; format: functional, cell-based
[6] = system: MIA PaCa-2; test: Cytotoxicity against human MIAPaCa2 cells by MTT assay; format: functional, cell-based
[7] = Toxicity in Artemia salina; format: organism-based; details: in vivo
[8] = system: Aedes aegypti; test: Insecticidal activity against yellow fever mosquito larvae […] in bovine liver powder after 4 days by MES assay; format: functional; details: 96 h

SMILES	IC50 [1] [µg/mL]	IC50 [2] [µg/mL]	IC50 [3] [µg/mL]	IC50 [4] [µg/mL]	IC50 [5] [µg/mL]	IC50 [6] [µg/mL]	LC50 [7] [µg/mL]	LC50 [8] [µg/mL]
CCCCCCCCCCCCCCCC(O)CC(O)CO (stereo unspecified)	3 (≈ 9.48 µM)	3.2 (≈ 10.1 µM)	3 (≈ 9.48 µM)	2.7 (≈ 8.53 µM)	1.2 (≈ 3.79 µM)	> 10	2.8 (≈ 8.85 µM)	1.8 (≈ 5.69 µM)
C=CCCCCCCCCCCCC(O)CC(O)CO (stereo unspecified) [AVOCADENE]	3.4 (≈ 11.9 µM)	4.4 (≈ 15.4 µM)	2.6 (≈ 9.08 µM)	3.6 (≈ 12.6 µM)	0.46 (≈ 1.61 µM)	5.3 (≈ 18.5 µM)	1.3 (≈ 4.54 µM)	0.21 (≈ 0.733 µM)
C#CCCCCCCCCCCCC(O)CC(O)CO (stereo unspecified) [AVOCADYNE]	4.8 (≈ 16.9 µM)	6.5 (≈ 22.9 µM)	8.9 (≈ 31.3 µM)	4.1 (≈ 14.4 µM)	0.061 (≈ 0.214 µM)	> 10	0.64 (≈ 2.25 µM)	0.077 (≈ 0.271 µM)
COc1cccc2c1C(=O)c1c(O)c3c(c(O)c1C2=O)C[C@@](O)(C(=O)CO)C[C@@H]3O[C@H]1C[C@H](N)[C@H](O)[C@H](C)O1 [DOXORUBICIN]	0.0022 (≈ 0.00405 µM)	0.081 (≈ 0.149 µM)	0.0053 (≈ 0.00975 µM)	0.0049 (≈ 0.00902 µM)	0.011 (≈ 0.0202 µM)	0.0024 (≈ 0.00442 µM)	–	–
C=C(C)[C@H]1Cc2c(ccc3c2O[C@@H]2COc4cc(OC)c(OC)cc4[C@@H]2C3=O)O1 [ROTENONE]	–	–	–	–	–	–	–	0.75 (≈ 1.9 µM)
